Data reported in US20250136619A1, “HETEROBIFUNCTIONAL COMPOUNDS AND THEIR USE IN TREATING DISEASE” (HALDA THERAPEUTICS OPCO, INC., priority 2021, published 2025).
Like-named read-outs stand apart in the source and are kept apart here.

Legend:
[1] = system: HEK293 cells; experiment: Cellular growth inhibition assay (CellTiter-Glo), HEK293 cells; type: cell-based; details: read-out: CTG HEK293 GI50
Experimental: (§1) HEK293 and HeLa cells were cultured in DMEM medium supplemented with 10% fetal bovine serum and 1% Penn/Strep. Cells were seeded in white 384-well plates at 500 cells/well in […] complete medium. Following seeding, plates were spun at 300×g for three minutes and cultured at 37° C. with 5% CO2 in a humidified tissue culture incubator.
(§2) After 24 hours, compounds were titrated in 100% DMSO and diluted in complete cell culture medium. […] of compound/media mixture was added to cells to bring total volume in well to […]. DMSO alone was used as a negative control. Plates were then spun at 300×g for three minutes and stored at 37° C. with 5% CO2 for three days.
(§3) On Day 0 and Day 3 of compound treatment, cell viability was quantified with CellTiter-Glo 2.0 reagent (Promega). After equilibrating microplates at room temperature for 30 minutes, 25 μL CellTiter-Glo 2.0 reagent was dispensed into each well to bring total volume to […]. Plates were mixed on shaker for 2 minutes at 500 rpm, followed by a 10-minute incubation at room temperature. Following a quick spin, luminescence readings were measured with an En Vision Plate Reader. Data was normalized to DMSO treated Day 0 and Day 3 readings. A four-parameter non-linear regression curve fit was applied to dose-response data in GraphPad Prism data analysis software to determine the half maximal growth inhibitory concentration (GI50) for each compound.

[2] = system: HeLa cells; experiment: Cellular growth inhibition assay (CellTiter-Glo), HeLa cells; type: cell-based; details: read-out: CTG HELA GI50
Experimental: as §1, §2, §3

[3] = Homo sapiens, 72 h, HEK293 cells, three days of compound treatment, CellTiter-Glo 2.0
[4] = Homo sapiens, 72 h, HeLa cells, three days of compound treatment, CellTiter-Glo 2.0
[5] = HEK293 cells, three days of compound treatment, CellTiter-Glo 2.0
[6] = HeLa cells, three days of compound treatment, CellTiter-Glo 2.0

| GI50 [2, 4] [µM] | GI50 [2, 6] [µM] | SMILES | GI50 [1, 3] [µM] | GI50 [1, 5] [µM] | also measured |
| --- | --- | --- | --- | --- | --- |
| 0.5 to 1.5 | – | C=CC(=O)N1CCN([C@@H](CC2CC2)c2ccc([C@H](C)Nc3ncc4c(n3)N(CCOCCOCCOCCOCCOCCOCCOCCOCCON(C)C(=O)N3N=C(c5cc(F)ccc5F)SC3(CCCN)c3ccccc3)C(=O)OC4)cc2)CC1 (stereo partly shown) [Compound I-61] | 1.5 to 5 | – | – |
| > 5 | – | CCNC(=O)C[C@@H]1N=C(c2ccc(OCCOCCOCC(=O)N3CC(=O)N(c4cc(C#N)ccn4)[C@H](C(=O)N(c4cc(F)cc(F)c4)[C@H](C(=O)NC4CC(F)(F)C4)c4ccccc4Cl)C3)cc2)c2c(sc(C)c2C)-n2c(C)nnc21 [Compound I-105, (2S)—N-[(1S)-1-(2-chlorophenyl)-2-[(3,3-difluorocyclobutyl)amino]-2-oxo-ethyl]-1-(4-cyano-2-pyridyl)-N-(3,5-difluorophenyl)-4-[2-[2-[2-[4-[(9S)-9-[2-(ethylamino)-2-oxo-ethyl]-4,5,13-trimethyl-3-thia-1,8,11,12-tetrazatricyclo[8.3.0.0^2,6]trideca-2 (6),4,7,10,12-pentaen-7-yl]phenoxy]ethoxy]ethoxy]acetyl]-6-oxo-piperazine-2-carboxamide] | > 5 | – | – |
| – | – | CC(C)(C)c1[nH]cnc1/C=c1\[nH]c(=O)/c(=C/c2ccccc2)n(CCOCCOCC(=O)N2CC(=O)N(c3cc(C#N)ccn3)[C@H](C(=O)N(c3cc(F)cc(F)c3)[C@H](C(=O)NC3CC(F)(F)C3)c3ccccc3Cl)C2)c1=O [Compound I-109, (2S)-4-[2-[2-[2-[(2Z,5Z)-2-benzylidene-5-[(5-tert-butyl-1H-imidazol-4-yl)methylene]-3,6-dioxo-piperazin-1-yl]ethoxy]ethoxy]acetyl]-N-[(1S)-1-(2-chlorophenyl)-2-[(3,3difluorocyclobutyl)amino]-2-oxo-ethyl]-1-(4-cyano-2-pyridyl)-N-(3,5-difluorophenyl)-6-oxo-piperazine-2-carboxamide] | – | – | GI50 ([1]; Homo sapiens, HEK293, 72 h): > 5 µM; GI50 ([2]; Homo sapiens, HeLa, 72 h): > 5 µM |
| 1.5 to 5 | – | CCc1cnn2c(NCc3ccc(OCCOCCOCCOCCOCCOCCOCCN(C)C/C=C/C(=O)N4CCC[C@@H](n5nc(-c6ccc(Oc7ccccc7)cc6)c6c(N)ncnc65)C4)nc3)cc(N3CCCC[C@H]3CCO)nc12 [Compound I-46] | 1.5 to 5 | – | – |
| > 5 | – | CCNC(=O)C[C@@H]1N=C(c2ccc(OCCOCCOCCOCCOCC(=O)N3CC(=O)N(c4cc(C#N)ccn4)[C@H](C(=O)N(c4cc(F)cc(F)c4)[C@H](C(=O)NC4CC(F)(F)C4)c4ccccc4Cl)C3)cc2)c2c(sc(C)c2C)-n2c(C)nnc21 [Compound I-106, (2S)—N-[(1S)-1-(2-chlorophenyl)-2-[(3,3-difluorocyclobutyl)amino]-2-oxo-ethyl]-1-(4-cyano-2-pyridyl)-N-(3,5-difluorophenyl)-4-[2-[2-[2-[2-[2-[4-[(9S)-9-[2-(ethylamino)-2-oxo-ethyl]-4,5,13-trimethyl-3-thia-1,8,11,12-tetrazatricyclo[8.3.0.0^2,6]trideca-2 (6),4,7, 10,12-pentaen-7-yl]phenoxy]ethoxy]ethoxy]ethoxy]ethoxy]acetyl]-6-oxo-piperazine-2-carboxamide] | > 5 | – | – |
| 1.5 to 5 | – | CN(CCOCCOCCNS(=O)(=O)c1cc(F)cc(N(C(=O)[C@@H]2CCC(=O)N2c2cc(C#N)ccn2)C(C(=O)NC2CC(F)(F)C2)c2ccccc2Cl)c1)C(=O)N1N=C(c2cc(F)ccc2F)SC1(CCCN)c1ccccc1 (stereo partly drawn) [Compound I-114, 2-(3-aminopropyl)-N-[2-[2-[2-[[3-[[1-(2-chlorophenyl)-2-[(3,3-difluorocyclobutyl)amino]-2-oxo-ethyl]-[(2S)-1-(4-cyano-2-pyridyl)-5-oxo-pyrrolidine-2-carbonyl]amino]-5-fluoro-phenyl]sulfonylamino]ethoxy]ethoxy]ethyl]-5-(2,5-difluorophenyl)-N-methyl-2-phenyl-1,3,4-thiadiazole-3-carboxamide] | > 5 | – | – |
| – | 0.5 to 1.5 | CCc1cnn2c(NCc3ccc(=O)n(CCOCCOCCOCCOCCCc4cc(-c5cnc([C@H](C)Nc6nccc(N7C(=O)OC[C@@H]7[C@H](C)F)n6)cc5C)cc(C(F)(F)F)n4)c3)cc(N3CCCC[C@H]3CCO)nc12 [Compound I-103] | – | 0.5 to 1.5 | – |
| – | < 0.5 | CCc1cnn2c(NCc3ccc(OCCOCCOCCCCCn4c(C#N)ccc(N[C@@H](C)c5cc6cc(Cl)ccc6[nH]c5=O)c4=O)nc3)cc(N3CCCC[C@H]3CCO)nc12 [Compound I-91] | – | < 0.5 | – |
| 0.5 to 1.5 | – | CCS(=O)(=O)Nc1ccc(Oc2cccc(OCCOCCOCC(=O)N3CC(=O)N(c4cc(C#N)ccn4)[C@H](C(=O)N(c4cc(F)cc(F)c4)[C@H](C(=O)NC4CC(F)(F)C4)c4ccccc4Cl)C3)c2)c(-c2cn(C)c(=O)c3[nH]ccc23)c1 [Compound I-107, (2S)—N-[(1S)-1-(2-chlorophenyl)-2-[(3,3-difluorocyclobutyl)amino]-2-oxo-ethyl]-1-(4-cyano-2-pyridyl)-N-(3,5-difluorophenyl)-4-[2-[2-[2-[3-[4-(ethylsulfonylamino)-2-(6-methyl-7-oxo-1H-pyrrolo[2,3-c]pyridin-4-yl)phenoxy]phenoxy]ethoxy]ethoxy]acetyl]-6-oxo-piperazine-2-carboxamide] | > 5 | – | – |
| – | < 0.5 | CCc1cnn2c(NCc3ccc(OCCOCCOCCOCCOCCCc4cc(-c5cnc([C@H](C)Nc6nccc(N7C(=O)OC[C@@H]7[C@H](C)F)n6)cc5C)cc(C(F)(F)F)n4)nc3)cc(N3CCCC[C@H]3CCO)nc12 [Compound I-102] | – | < 0.5 | – |
| – | < 0.5 | CCc1cnn2c(NCc3ccc(OCCCCCn4c(C#N)ccc(N[C@@H](C)c5cc6cc(Cl)ccc6[nH]c5=O)c4=O)nc3)cc(N3CCCC[C@H]3CCO)nc12 [Compound I-89] | – | 1.5 to 5 | – |
| < 0.5 | – | CCc1cnn2c(NCc3ccc(=O)n(CCOCCOCCCc4cc(-c5cnc([C@H](C)Nc6nccc(N7C(=O)OC[C@@H]7[C@H](C)F)n6)cc5C)cc(C(F)(F)F)n4)c3)cc(N3CCCC[C@H]3CCO)nc12 [Compound I-100, (4R)-3-[2-[[(1S)-1-[5-[2-[3-[2-[2-[5-[[3-ethyl-5-[(2S)-2-(2-hydroxyethyl)-1-piperidyl]pyrazolo[1,5-a]pyrimidin-7-yl]aminomethyl]-2-oxo-1-pyridyl]ethoxy]ethoxy]propyl]-6-(trifluoromethyl)-4-pyridyl]-4-methyl-2-pyridyl]ethyl]amino]pyrimidin-4-yl]-4-[(1S)-1-fluoroethyl]oxazolidin-2-one] | < 0.5 | – | – |
| 1.5 to 5 | – | CN(C/C=C/C(=O)N1CCC[C@@H](n2nc(-c3ccc(Oc4ccccc4)cc3)c3c(N)ncnc32)C1)CCOCCOCCOCCOCCOCCOCCNS(=O)(=O)c1ccc(Nc2ncc(Br)c(Nc3cccc(F)c3C(N)=O)n2)cc1 [Compound I-65, 2-[[2-[4-[2-[2-[2-[2-[2-[2-[2-[[(E)-4-[(3R)-3-[4-amino-3-(4-phenoxyphenyl)pyrazolo[3,4-d]pyrimidin-1-yl]-1-piperidyl]-4-oxo-but-2-enyl]-methyl-amino]ethoxy]ethoxy]ethoxy]ethoxy]ethoxy]ethoxy]ethylsulfamoyl]anilino]-5-bromo-pyrimidin-4-yl]amino]-6-fluoro-benzamide] | > 5 | – | – |

| SMILES | GI50 [2, 4] [µM] | GI50 [2, 6] [µM] | GI50 [1, 3] [µM] | GI50 [1, 5] [µM] | also measured |
| --- | --- | --- | --- | --- | --- |
| CCc1cnn2c(NCc3ccc(=O)n(CCOCCOCCOCCOCCNS(=O)(=O)c4cc(F)cc(N(C(=O)[C@@H]5CCC(=O)N5c5cc(C#N)ccn5)C(C(=O)NC5CC(F)(F)C5)c5ccccc5Cl)c4)c3)cc(N3CCCC[C@H]3CCO)nc12 (stereo partly shown) [Compound I-95] | – | 0.5 to 1.5 | – | 1.5 to 5 | – |
| CCc1cnn2c(NCc3ccc(OCCOCCOCCOCCOCCNS(=O)(=O)c4cc(F)cc(N(C(=O)[C@@H]5CCC(=O)N5c5cc(C#N)ccn5)C(C(=O)NC5CC(F)(F)C5)c5ccccc5Cl)c4)nc3)cc(N3CCCC[C@H]3CCO)nc12 (stereo partly shown) [Compound I-94] | – | 0.5 to 1.5 | – | 1.5 to 5 | – |
| CCc1cnn2c(NCc3ccc(OCCCCCOc4nc(C#N)ccc4N[C@@H](C)c4cc5cc(Cl)ccc5[nH]c4=O)nc3)cc(N3CCCC[C@H]3CCO)nc12 [Compound I-90, 5-[[(1S)-1-(6-chloro-2-oxo-1H-quinolin-3-yl)ethyl]amino]-6-[5-[5-[[[3-ethyl-5-[(2S)-2-(2-hydroxyethyl)-1-piperidyl]pyrazolo[1,5-a]pyrimidin-7-yl]aminomethyl]-2-pyridyl]oxy]pentoxy]pyridine-2-carbonitrile] | – | < 0.5 | – | < 0.5 | – |
| C[C@@H](Nc1ccc(C#N)n(C)c1=O)c1cc2cc(Cl)c(C3CC(OCCOCCOCCOCCOCCN(C)C(=O)N4N=C(c5cc(F)ccc5F)SC4(CCCN)c4ccccc4)C3)cc2[nH]c1=O (stereo partly drawn) [Compound I-111, 2-(3-aminopropyl)-N-[2-[2-[2-[2-[2-[3-[6-chloro-3-[(1R)-1-[(6-cyano-1-methyl-2-oxo-3-pyridyl)amino]ethyl]-2-oxo-1H-quinolin-7-yl]cyclobutoxy]ethoxy]ethoxy]ethoxy]ethoxy]ethyl]-5-(2,5-difluorophenyl)-N-methyl-2-phenyl-1,3,4-thiadiazole-3-carboxamide] | 0.5 to 1.5 | – | 1.5 to 5 | – | – |
